pIC50: −log10 of the molar value.

This assay deals with T1, IKKε (Homo sapiens, UniProt Q14164).
T1 construct: His-tag; made in house; host or cells: Sf9 insect cells
T1 sequence (Q14164 1-716): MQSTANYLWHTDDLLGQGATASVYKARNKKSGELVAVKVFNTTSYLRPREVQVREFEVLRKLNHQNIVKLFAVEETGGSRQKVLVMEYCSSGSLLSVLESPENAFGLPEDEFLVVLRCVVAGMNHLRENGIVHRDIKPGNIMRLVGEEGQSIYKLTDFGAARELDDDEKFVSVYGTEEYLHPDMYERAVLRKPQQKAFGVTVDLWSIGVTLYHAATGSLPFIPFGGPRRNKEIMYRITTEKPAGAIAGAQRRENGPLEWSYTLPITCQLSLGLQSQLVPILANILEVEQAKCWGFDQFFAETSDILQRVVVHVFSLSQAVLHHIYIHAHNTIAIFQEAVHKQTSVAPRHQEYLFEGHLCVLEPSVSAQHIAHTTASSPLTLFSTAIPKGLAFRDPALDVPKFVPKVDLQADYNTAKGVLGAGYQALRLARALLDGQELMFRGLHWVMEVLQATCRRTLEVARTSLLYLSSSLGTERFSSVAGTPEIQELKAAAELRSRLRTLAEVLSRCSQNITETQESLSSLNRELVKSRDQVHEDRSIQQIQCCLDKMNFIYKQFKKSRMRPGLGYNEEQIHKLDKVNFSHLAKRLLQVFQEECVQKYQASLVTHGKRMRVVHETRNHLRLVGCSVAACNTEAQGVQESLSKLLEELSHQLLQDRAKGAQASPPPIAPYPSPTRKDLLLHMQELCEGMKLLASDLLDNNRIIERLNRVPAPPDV
The assay is described as follows: In-vitro IKKε kinase assay ([γ33]ATP filter-plate). It is filed as biochemical. The settings on record: text bins; read-out: IC50 for inhibition of the kinase activity of IKKε. The essentials: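 Phosphorylation of casein or myelin basic protein was counted by P-81 filter capture after 30-45 min reactions stopped with phosphoric acid, with counts normalized to DMSO after background subtraction. ATP was twice Km: 60 μM for TBK1 and 32 μM for IKKε, plus [γ33]ATP. Sf9-expressed His-tag enzymes were used at normal/sensitized levels of 0.1/0.02 μg/ml (TBK1) and 0.1/0.015 μg/ml (IKKε).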
In general, pIC50 refers to the IC50 on a negative log10 scale, so that one unit is a factor of ten. Take `COc1cc(Nc2nccc(-c3ccc(OC4CCNCC4)c(C#N)c3)n2)ccc1S(=O)(=O)NCCCO` [compound 399, 4-({4-[3-cyano-4-(piperidin-4-yloxy)phenyl]pyrimidin-2-yl}amino)-N-(3-hydroxypropyl)-2-methoxybenzene-sulfonamide]: the negative-log IC50 (pIC50) is 7.30 to 8.30.
The same measure for `CCN(CC)CCN(CC)C(=O)Cc1cccc(Nc2nccc(-c3ccc(NC(=O)C(C)C)c(C#N)c3)n2)c1` [compound 424, N-[2-cyano-4-(2-{[3-(2-{[2-(diethylamino)ethyl] (ethyl)amino}-2-oxoethyl)phenyl]amino}pyrimidin-4-yl)phenyl]-2-methylpropanamide]: 6.30 to 7.30; for `CC(C)C(=O)Nc1ccc(-c2ccnc(Nc3ccc(CN4CCN(CCO)CC4)cc3)n2)cc1C#N` [compound 426, N-(2-cyano-4-{2-[(4-{[4-(2-hydroxyethyl)piperazin-1-yl]methyl}phenyl)amino]pyrimidin-4-yl}phenyl)-2-methylpropanamide]: 7.30 to 8.30.
Take `CC(C)C(=O)Nc1ccc(-c2ccnc(Nc3cccc(OCCCN4CCOCC4)c3)n2)cc1C#N` [compound 429, N-{2-cyano-4-[2-({3-[3-(morpholin-4-yl)propoxy]phenyl}amino)pyrimidin-4-yl]phenyl}-2-methylpropanamide]: the pIC50 was 7.30 to 8.30.
The same measure for `CC(C)C(=O)Nc1ccc(-c2ccnc(Nc3ccc(OCCCN4CCOCC4)cc3)n2)cc1C#N` [compound 430, N-{2-cyano-4-[2-({4-[3-(morpholin-4-yl)propoxy]phenyl}amino)pyrimidin-4-yl]phenyl}-2-methylpropanamide]: 7.30 to 8.30; for `CC(C)C(=O)Nc1ccc(-c2ccnc(Nc3ccc(OCCN4CCOCC4)cc3)n2)cc1C#N` [compound 431, N-{2-cyano-4-[2-({4-[2-(morpholin-4-yl)ethoxy]phenyl}amino)pyrimidin-4-yl]phenyl}-2-methylpropanamide]: 7.30 to 8.30.
The same measure for `N#Cc1cc(-c2ccnc(Nc3ccc(N4CCOCC4)cc3)n2)ccc1NC(=O)Cc1ccccc1` [compound 435, N-[2-cyano-4-(2-{[4-(morpholin-4-yl)phenyl]amino}pyrimidin-4-yl)phenyl]-2-phenylacetamide]: 6.30 to 7.30.
In the case of `N#Cc1cc(-c2ccnc(Nc3ccc(N4CCOCC4)cc3)n2)ccc1NC(=O)C(F)(F)C(F)F` [compound 441, N-[2-Cyano-4-(2-{[4-(morpholin-4-yl)phenyl]amino}pyrimidin-4-yl)phenyl]-2,2,3,3-tetrafluoropropanamide], the pIC50 was 7.30 to 8.30.
Turning to `CCNS(=O)(=O)c1ccc(Nc2nccc(-c3ccc(NC(=O)C(C)C)c(C#N)c3)n2)cc1` [compound 449, N-[2-cyano-4-(2-{[4-(ethylsulfamoyl)phenyl]amino}pyrimidin-4-yl)phenyl]-2-methylpropanamide], the pIC50 was 7.30 to 8.30.
The same measure for `CC(C)C(=O)Nc1ccc(-c2ccnc(Nc3ccc(CCN4CCNCC4)cc3)n2)cc1C#N` [compound 451, N-{2-cyano-4-[2-({4-[2-(piperazin-1-yl)ethyl]phenyl}amino)pyrimidin-4-yl]phenyl}-2-methylpropanamide]: 6.30 to 7.30; for `CC(C)C(=O)Nc1ccc(-c2ccnc(Nc3ccc(C(C)CN4CCOCC4)cc3)n2)cc1C#N` (centres unmarked) [compound 452, N-{2-cyano-4-[2-({4-[1-(morpholin-4-yl)propan-2-yl]phenyl}amino)pyrimidin-4-yl]phenyl}-2-methylpropanamide]: 6.30 to 7.30.
The same measure for `CC(C)C(=O)Nc1ccc(-c2ccnc(Nc3ccc(C(C)C(=O)N4CCOCC4)cc3)n2)cc1C#N` (centres unmarked) [compound 453, N-{2-cyano-4-[2-({4-[1-(morpholin-4-yl)-1-oxopropoan-2-yl]phenyl}amino)pyrimidin-4-yl]phenyl}-2-methylpropanamide]: 7.30 to 8.30.
For `CCN(CC)CCc1ccc(Nc2nccc(-c3ccc(NC(=O)C(C)C)c(C#N)c3)n2)cc1` [compound 454, N-{2-cyano-4-[2-({4-[2-(diethylamino)ethyl]phenyl}amino)pyrimidin-4-yl]phenyl}-2-methylpropanamide], the pIC50 was 7.30 to 8.30.
For the compound `CC(C)C(=O)Nc1ccc(-c2ccnc(Nc3ccc(CCNCCO)cc3)n2)cc1C#N` [compound 455, N-(2-cyano-4-{2-[(4-{2-[(2-hydroxyethyl)amino]ethyl}phenyl)amino]pyrimidin-4-yl}phenyl)-2-methylpropanamide], the pIC50 was 7.30 to 8.30.
The same measure for `CC(C)(COc1ccc(-c2ccnc(Nc3ccc(N4CCOCC4)cc3)n2)cc1C#N)C(=O)N1CCOCC1` [compound 459, 2-[2,2-dimethyl-3-(morpholin-4-yl)-3-oxopropoxy]-5-(2-{[4-(morpholin-4-yl)phenyl]amino}pyrimidin-4-yl)benzonitrile]: 6.30 to 7.30; for `CC(C)NCCc1ccc(Nc2nccc(-c3ccc(NC(=O)C(C)C)c(C#N)c3)n2)cc1` [compound 462, N-{2-cyano-4-[2-({4-[2-(propan-2-ylamino)ethyl]phenyl}amino)pyrimidin-4-yl]phenyl}-2-methylpropanamide]: 7.30 to 8.30; for `CC(C)C(=O)Nc1ccc(-c2ccnc(Nc3ccc(CCO)cc3)n2)cc1C#N` [compound 464, N-[2-cyano-4-(2-{[4-(2-hydroxyethyl)phenyl]amino}pyrimidin-4-yl)phenyl]-2-methylpropanamide]: 7.30 to 8.30.
Turning to `CC(=O)N1CCC(COc2ccc(-c3ccnc(Nc4ccc(N5CCOCC5)cc4)n3)cc2C#N)C1` (centres unmarked) [compound 469, 2-[(1-acetylpyrrolidin-3-yl)methoxy]-5-(2-{[4-(morpholin-4-yl)phenyl]amino}pyrimidin-4-yl)benzonitrile], the pIC50 was 7.30 to 8.30.
Take `N#Cc1cc(-c2ccnc(Nc3ccc(N4CCOCC4)cc3)n2)ccc1OCCC1CCNCC1` [compound 472, 5-(2-{[4-(morpholin-4-yl)phenyl]amino}pyrimidin-4-yl)-2-[2-(piperidin-4-yl)ethoxy] benzonitrile]: the pIC50 is 6.30 to 7.30.
`N#Cc1cc(-c2ccnc(Nc3ccc(N4CCOCC4)cc3)n2)ccc1OC1CN(CCO)C1` [compound 474, 2-{[1-(2-hydroxyethyl)azetidin-3-yl]oxy}-5-(2-{[4-(morpholin-4-yl)phenyl]amino}pyrimidin-4-yl)benzonitrile]: the negative logarithm of the IC50 (pIC50) was 6.30 to 7.30.
The same measure for `COc1cc(Nc2nccc(-c3ccc(OC4CCN(C(=O)CO)C4)c(C#N)c3)n2)ccc1N1CCC(N2CCN(C)CC2)CC1` (centres unmarked) [compound 513, 2-{[1-(hydroxyacetyl)pyrrolidin-3-yl]oxy}-5-[2-({3-methoxy-4-[4-(4-methylpiperazin-1-yl)piperidin-1-yl]phenyl}amino)pyrimidin-4-yl]benzonitrile]: 6.30 to 7.30; for `COc1cc(Nc2nccc(-c3ccc(OC4CCOCC4)c(C#N)c3)n2)ccc1N1CCC(N2CCN(C)CC2)CC1` [compound 514, 5-[2-({3-methoxy-4-[4-(4-methylpiperazin-1-yl)piperidin-1-yl]phenyl}amino)pyrimidin-4-yl]-2-(tetrahydro-2H-pyran-4-yloxy)benzonitrile]: 6.30 to 7.30.
For `COC1CCN(c2cccc(Nc3nccc(-c4ccc(O[C@@H]5CCN(C(=O)CO)C5)c(C#N)c4)n3)c2)C1` (stereo partly drawn) [compound 546, 2-{[(3R)-1-(Hydroxyacetyl)pyrrolidin-3-yl]oxy}-5-(2-{[3-(3-methoxypyrrolidin-1-yl)phenyl]amino}pyrimidin-4-yl)benzonitrile], the pIC50 is above 8.30.
